Reference: PMC12040169 (PLOS Biology, 2025)

Test: in vitro
Details: human, hela cells, % viability

SMILES | viability at 28.5 h, 10 µM [%]
COc1ccccc1-c1ccc(CNC(Cc2ccsc2)c2nccs2)cc1 (stereo not drawn) [CBK286315] | 86.7
CCN(CC)C(=O)CN1C(=O)[C@H]2CCCN2C(=O)c2ccccc21 [CBK286319] | 95.5
OC(CN1CCC(O)(c2ccc3c(c2)OCO3)CC1)c1ccc2c(c1)CCC2 (stereo not drawn) [CBK286326] | 99.6
CC(=O)c1cc(C(=O)Nc2ccc(Oc3ccc4c(c3)OCO4)cc2)cs1 [CBK286327] | 92.5
Cc1ccccc1C1(O)CCN(CC(O)c2ccc3c(c2)CCC3)CC1 (stereo not drawn) [CBK286329] | 88
Cc1cccc(C2(O)CCN(CC(O)c3ccc4c(c3)CCC4)CC2)c1 (stereo not drawn) [CBK286330] | 95.3
COc1ccc(C2(O)CCN(CC(O)c3ccc(C(C)(C)C)cc3)CC2)cc1 (stereo not drawn) [CBK286333] | 90.6
COc1ccc(C2(O)CCN(CC(O)c3ccc4c(c3)CCC4)CC2)cc1 (stereo not drawn) [CBK286334] | 95.9
COc1ccccc1C1(O)CCN(Cc2ccccc2OCc2ccc3c(c2)OCO3)CC1 [CBK286337] | 80.4
COc1cccc(C(O)CN2CCC3(CC2)CC(O)c2cc(C)ccc2O3)c1 (stereo not drawn) [CBK286338] | 88.4
COc1cccc(C(O)CN2CCC3(CC2)CC(O)c2cc(Cl)c(C)cc2O3)c1 (stereo not drawn) [CBK286342] | 99.3
Cc1[nH]c(=O)[nH]c(=O)c1CC(=O)N1CCCCC1CN1CCCCC1 (stereo not drawn) [CBK286344] | 98.8
OC(CN1CCC2(CC1)CC(O)c1ccccc1O2)c1ccc(-c2ccccc2)cc1 (stereo not drawn) [CBK286347] | 101
Cc1ccc(N2CCCC2=O)cc1S(=O)(=O)NC(c1ccccc1)c1ccccc1 [CBK286348] | 85.6
Oc1ccc2c(c1)C(O)CC1(CCN(CC(O)c3ccc(-c4ccccc4)cc3)CC1)O2 (stereo not drawn) [CBK286351] | 91.3
COc1ccccc1-c1ccc(NS(=O)(=O)c2ccc3c(c2)CCC(=O)N3)cc1 [CBK286353] | 82.5
COc1ccc(N2CCN(CC(O)c3c[nH]c4cc(OC)ccc34)CC2)cc1 (stereo not drawn) [CBK286355] | 96.1
Cc1cccnc1C(Cc1ccsc1)NS(=O)(=O)c1ccc2[nH]c(=O)[nH]c(=O)c2c1 (stereo not drawn) [CBK286356] | 111
O=c1[nH]c(=O)c2cc(S(=O)(=O)Nc3ccc(N4CCCCCC4)cc3)ccc2[nH]1 [CBK286361] | 81.4
Cc1cc2ccccc2n1CCCNS(=O)(=O)c1ccc2[nH]c(=O)[nH]c(=O)c2c1 [CBK286362] | 96
CCn1c(C)cc2cc(NS(=O)(=O)c3ccc4[nH]c(=O)[nH]c(=O)c4c3)ccc21 [CBK286363] | 104

SMILES | viability at 28.5 h, 10 µM [%]
O=C1CCc2cc(S(=O)(=O)Nc3ccccc3-c3ccccc3)ccc2N1 [CBK286366] | 92.6
O=C1CCc2cc(S(=O)(=O)Nc3ccccc3Cc3ccccc3)ccc2N1 [CBK286369] | 87
COc1cccc(-c2cccc(NS(=O)(=O)c3ccc4c(c3)CCC(=O)N4)c2)c1 [CBK286372] | 105
O=c1[nH]c(=O)c2cc(S(=O)(=O)Nc3ccccc3-c3ccccc3)ccc2[nH]1 [CBK286374] | 102
CC1CCCN(c2ccc(NS(=O)(=O)c3ccc4[nH]c(=O)[nH]c(=O)c4c3)cc2)C1 (stereo not drawn) [CBK286376] | 97.5
O=c1[nH]c(=O)c2cc(S(=O)(=O)N3CCN(c4ccccn4)CC3)ccc2[nH]1 [CBK286379] | 112
O=c1[nH]c(=O)c2cc(S(=O)(=O)N3CCCC(c4ccccc4)C3)ccc2[nH]1 (stereo not drawn) [CBK286381] | 106
O=c1[nH]c(=O)c2cc(S(=O)(=O)N3CCC(c4ccccc4)C3)ccc2[nH]1 (stereo not drawn) [CBK286382] | 105
O=c1[nH]c(=O)c2cc(S(=O)(=O)Nc3ccc(Cn4ccnc4)cc3)ccc2[nH]1 [CBK286383] | 105
O=c1[nH]c(=O)c2cc(S(=O)(=O)NCC3CCN(Cc4ccccc4)C3)ccc2[nH]1 (stereo not drawn) [CBK286384] | 90
O=c1[nH]c(=O)c2cc(S(=O)(=O)Nc3ccc(Oc4cccnc4)cc3)ccc2[nH]1 [CBK286386] | 99.2
O=c1[nH]c(=O)c2cc(S(=O)(=O)NCC3(c4ccccc4)CCCC3)ccc2[nH]1 [CBK286387] | 112
O=c1[nH]c(=O)c2cc(S(=O)(=O)Nc3cccc(CCc4ccccn4)c3)ccc2[nH]1 [CBK286389] | 97.9
CC(C)C1c2cccn2CCN1S(=O)(=O)c1ccc2[nH]c(=O)[nH]c(=O)c2c1 (stereo not drawn) [CBK286391] | 99.6
COc1ccc2c(c1)OC1(CCN(C(=O)C3CCCC3)CC1)CC2O (stereo not drawn) [CBK286400] | 84.4
Cc1cc(C2CCCCCN2S(=O)(=O)c2ccc3[nH]c(=O)[nH]c(=O)c3c2)on1 (stereo not drawn) [CBK286405] | 93.6
Cn1cc(C2CCCCCN2S(=O)(=O)c2ccc3[nH]c(=O)[nH]c(=O)c3c2)cn1 (stereo not drawn) [CBK286406] | 103
Cn1ccc(C2CCCCCN2S(=O)(=O)c2ccc3[nH]c(=O)[nH]c(=O)c3c2)n1 (stereo not drawn) [CBK286407] | 71.1
COc1ccc2[nH]c(=O)c(CNc3ccc4c(c3)-c3ccccc3S(=O)(=O)N4)cc2c1 [CBK286409] | 84.2
c1coc(CNc2ncc(-c3ccc4c(c3)OCO4)c(-c3cccs3)n2)c1 [CBK286414] | 93.9
O=C(NCc1cccs1)C1(Cc2ccccc2-c2ccc(F)c(F)c2)CCOCC1 [CBK286417] | 93.2

SMILES | viability at 28.5 h, 10 µM [%]
COc1ccccc1CN1CCC(Cc2ccccc2-c2ccc(C)cc2C)(C(=O)O)CC1 [CBK286419] | 88.4
Cc1nc2cc(-c3nccn3C)nn2c(N2CCN(c3ccc(O)cc3)CC2)c1C [CBK286427] | 92.8
CC(=O)NC1(c2ccccc2F)CCN(c2ncc(-c3ccco3)c(-c3ccco3)n2)CC1 [CBK286428] | 95.3
O=C(NCc1ccc(CO)cc1)[C@@H]1CN(Cc2ccccc2)C[C@H]1C(=O)c1ccc(F)cc1 [CBK286430] | 97.8
CC(=O)N1CCc2sccc2C1c1ccccc1NCc1ccoc1 (stereo not drawn) [CBK286432] | 91.6
CC(=O)N1CCc2sccc2C1c1ccc(NC(=O)c2ccc(F)cc2)cc1 (stereo not drawn) [CBK286434] | 89
COCC(=O)N1CCc2sccc2C1c1ccc(NC(=O)c2ccc(F)cc2)cc1 (stereo not drawn) [CBK286435] | 93.8
O=C(c1ccsc1)N1CCC2(CC1)CN(Cc1ccccc1)CC(c1ccccc1)O2 (stereo not drawn) [CBK286438] | 94.4
Cc1nccc(-c2cccc(NC3CCN(c4ccc5c(c4)OCCO5)CC3)c2)n1 [CBK286439] | 97.1
Cc1cccc(CN2CCN(c3ccccc3C(O)c3nccn3C)CC2)c1 (stereo not drawn) [CBK286441] | 88.5
COc1cccc(CNc2ccc(C3c4ccsc4CCN3C(C)=O)cc2)c1 (stereo not drawn) [CBK286443] | 109
COCC(=O)N1CCc2sccc2C1c1ccc(NCc2ccc(F)cc2)cc1 (stereo not drawn) [CBK286445] | 89.7
COCC(=O)N1CCc2sccc2C1c1ccc(NCc2ccc(C)o2)cc1 (stereo not drawn) [CBK286447] | 96.3
CC(O)CN(Cc1ccc(-c2ccccc2)cc1)Cc1ccc2c(c1)OCO2 (stereo not drawn) [CBK286450] | 94.1
CCOc1ccc(CNc2ccc(C3c4ccsc4CCN3C(C)=O)cc2)cc1 (stereo not drawn) [CBK286451] | 96.3
CCOc1ccc(CNc2ccc(C3c4ccsc4CCN3C(=O)COC)cc2)cc1 (stereo not drawn) [CBK286453] | 85.3
CC1Cc2cc(C(O)CN3CCC4CCCCC4C3)ccc2N1S(C)(=O)=O (stereo not drawn) [CBK286456] | 116
CC(=O)N1CCCc2cc(C(O)CN3CCN(c4cccc(C)c4)CC3)ccc21 (stereo not drawn) [CBK286457] | 93.1
COCC(=O)N1CCc2sccc2C1c1ccc(NCc2ccc(OC)cc2)cc1 (stereo not drawn) [CBK286458] | 85.1
CCOc1ccccc1CNc1ccc(C2c3ccsc3CCN2C(C)=O)cc1 (stereo not drawn) [CBK286459] | 104
Nc1ncc(CN(Cc2ccco2)CC(O)Cn2c3ccccc3c3ccccc32)cn1 (stereo not drawn) [CBK286462] | 88.6

SMILES | viability at 28.5 h, 10 µM [%]
O=c1[nH]c2c(cc1CNc1cccc(O)c1)c(-c1cccc(F)c1)nn2-c1ccccc1 [CBK286463] | 93
COc1ccc(C(=O)Nc2ccc(C3c4ccsc4CCN3C(C)=O)cc2)cc1 (stereo not drawn) [CBK286465] | 85
COCC(=O)N1CCc2sccc2C1c1ccc(NC(=O)c2cccc(F)c2)cc1 (stereo not drawn) [CBK286468] | 102
COCC(=O)N1CCc2sccc2C1c1ccc(NC(=O)c2ccccc2F)cc1 (stereo not drawn) [CBK286469] | 87.5
COc1ccc(-c2cccc(CN(Cc3ccc4c(c3)OCO4)CC(C)O)c2)cc1 (stereo not drawn) [CBK286472] | 107
CCOc1cc2c(cc1CN(Cc1ccc3c(c1)OCO3)CC(C)O)CCC2 (stereo not drawn) [CBK286474] | 87.2
CCC(=O)N1CCCc2cc(C(O)CN3CCN(c4cccc(OC)c4)CC3)ccc21 (stereo not drawn) [CBK286476] | 114
COc1ccc([C@H]2CN(Cc3ccccc3)C[C@@H]2NC(=O)CCc2ccco2)cc1 [CBK286477] | 87.6
COc1ccc([C@H]2CN(Cc3ccccc3)C[C@@H]2NC(=O)c2ccco2)cc1OC [CBK286478] | 88.4
COc1ccc(OC)c([C@@H]2CN(Cc3ccccc3)C[C@H]2NC(=O)c2ccco2)c1 [CBK286479] | 96.3
CCC(=O)N1CCCc2cc(C(O)CN3CCN(c4ccc(F)cc4)CC3)ccc21 (stereo not drawn) [CBK286480] | 95.3
CC(=O)N1CCCc2cc(C(O)CN3CCC(O)(c4ccc(F)cc4)CC3)ccc21 (stereo not drawn) [CBK286481] | 88.1
COc1ccccc1C1(O)CCN(CC(O)c2ccc3c(c2)OCCO3)CC1 (stereo not drawn) [CBK286482] | 90.1
COc1ccc(CN(Cc2ccccc2OC)[C@@H]2COC[C@H]2c2ccc(F)cc2)cc1 [CBK286484] | 105
COc1ccc(CN(Cc2ccsc2)[C@@H]2COC[C@H]2c2ccc(F)cc2)cc1 [CBK286485] | 112
CN(Cc1ccccc1)C(=O)c1c[nH]nc1C1CCCN(CC2CCCCC2)C1 (stereo not drawn) [CBK286489] | 94.4
CN(Cc1ccccc1)C(=O)c1c[nH]nc1C1CCCN(Cc2cccc(Cl)c2)C1 (stereo not drawn) [CBK286490] | 91
CN(C(=O)c1c[nH]nc1C1CCCN(Cc2cc3ccccc3o2)C1)C1CCCCC1 (stereo not drawn) [CBK286492] | 102
